In paper PMC6720883, “In Vitro Inhibitory Effects of APINACA on Human Major Cytochrome P450, UDP-Glucuronosyltransferase Enzymes, and Drug Transporters” (Molecules, 2019) one finds Ki and IC50 data, which are given here for one compound.

Structures are written as SMILES. Where two headings read alike, the source gives them in different places.

The term Ki denotes a dissociation constant, usually derived from enzyme kinetics or from competition with a known ligand. For orientation: IC50 means the concentration that gives 50% inhibition.

Data set [1] addresses human dopamine transporter. The arrangement: method as in PMID 28824464. To be noted: human dopamine transporter overexpressed system; read-out: Ki for inhibition of dopamine uptake; cited from earlier work.
Another data set concerns the target CYP2C9 (Homo sapiens, UniProt P11712). Nature of the data set: Inhibition of CYP2C9-catalyzed diclofenac 4′-hydroxylase in ultrapooled human liver microsomes. The data set is classed as in vitro ADME. Particulars: CYP2C9 diclofenac 4′-hydroxylase. The protocol:
The inhibitory potentials (IC50 values) of APINACA and typical CYP inhibitors on CYP 1A2, 2A6, 2C8, 2C9, 2C19, 2D6, and 3A4 activities in pooled human liver microsomes were evaluated following our previous method using a cocktail of CYP substrates, followed by LC–MS/MS [43]. […]. After 3 min of preincubation at 37 °C, the reaction mixtures were incubated for 15 min at 37 °C with the addition of NADPH in a shaking water bath. The reaction was stopped by adding 100 μL of ice cold methanol containing internal standards (d9-1′-hydroxybufuralol for 1′-hydroxybufuralol, 4′-hydroxydiclofenac, 7-hydroxycoumarin, 1′-hydroxymidazolam, and 4′-hydroxymephenytoin; ^13C2, ^15N-acetaminophen for acetaminophen and N-desethylamodiaquine). […] Aliquots (5 μL) of the diluted supernatants were analyzed by LC–MS/MS.
Next, the reaction mixtures were incubated with a seven-CYP probe substrate cocktail or bupropion for 15 min at 37 °C.
The LC-MS/MS system was comprised of an Agilent 6495 triple quadrupole mass spectrometer coupled with an Agilent 1290 Infinity system (Agilent Technologies, CA, USA). The column and autosampler temperatures were 40 °C and 4 °C, respectively.
The data were processed using Mass Hunter software (Agilent Technologies).
12.5 (Systat Software, Inc.; San Jose, CA, USA). […] 1.1 (Systat Software, Inc.).
A general note: Microsomes from liver hold many membrane-bound enzymes, among them those of drug oxidation.

The next data set deals with UGT1A4 (Homo sapiens, UniProt P22310). Put plainly: Inhibition of UGT1A4-catalyzed trifluoperazine N-glucuronidation in human liver microsomes. Here is the method: The inhibitory effect of APINACA and typical UGT inhibitors on UGT1A1, UGT1A3, UGT1A4, UGT1A6, UGT1A9, and UGT2B7 were evaluated following our previous method by LC–MS/MS after incubation of ultrapooled human liver microsomes with a cocktail of UGT substrates. […] The reactions were initiated by adding UDPGA, and the incubation continued for 60 min at 37 °C in a shaking water bath. The reactions were terminated by adding 50 μL of ice-cold acetonitrile containing internal standards (propofol glucuronide for chenodeoxycholic acid 24-acyl-β-glucuronide and mycophenolic acid glucuronide; and meloxicam for SN-38 glucuronide, trifluoperazine glucuronide, N-acetylserotonin β-D-glucuronide, and naloxone 3-β-D-glucuronide). The incubation mixtures were centrifuged at 13,000× g for 8 min at 4 °C. Next, 50 μL of each supernatant of A and B set was mixed, and aliquots (5 μL) were analyzed by LC–MS/MS. All assays were performed in triplicate, and the average values were used in calculations.
UGT1A4, sequence (P22310 29-534): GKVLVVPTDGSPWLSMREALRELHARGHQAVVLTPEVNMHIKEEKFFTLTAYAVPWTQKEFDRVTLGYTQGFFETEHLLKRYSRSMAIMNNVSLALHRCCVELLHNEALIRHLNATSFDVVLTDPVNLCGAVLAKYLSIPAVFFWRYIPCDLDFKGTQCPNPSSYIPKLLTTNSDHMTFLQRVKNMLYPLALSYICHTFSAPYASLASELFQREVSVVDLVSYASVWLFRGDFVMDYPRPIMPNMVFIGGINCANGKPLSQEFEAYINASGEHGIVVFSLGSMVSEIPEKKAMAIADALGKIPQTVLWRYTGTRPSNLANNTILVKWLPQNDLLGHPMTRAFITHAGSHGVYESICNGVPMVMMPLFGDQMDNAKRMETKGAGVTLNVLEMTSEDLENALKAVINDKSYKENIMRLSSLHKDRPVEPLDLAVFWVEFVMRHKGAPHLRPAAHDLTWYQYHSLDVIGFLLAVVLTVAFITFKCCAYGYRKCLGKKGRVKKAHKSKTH
To measure the time-dependent inhibition, human liver microsomes were preincubated with the various concentrations of APINACA (final concentrations of 0.1–100 μM) and UDPGA for 30 min at 37 °C. Next, the reaction mixtures were incubated with UGT probe substrate cocktail sets for 60 min at 37 °C. The control reaction was performed by adding methanol instead of the test compounds.
1.1 (Systat Software, Inc.).

CYP2C9, sequence (P11712 whole entry): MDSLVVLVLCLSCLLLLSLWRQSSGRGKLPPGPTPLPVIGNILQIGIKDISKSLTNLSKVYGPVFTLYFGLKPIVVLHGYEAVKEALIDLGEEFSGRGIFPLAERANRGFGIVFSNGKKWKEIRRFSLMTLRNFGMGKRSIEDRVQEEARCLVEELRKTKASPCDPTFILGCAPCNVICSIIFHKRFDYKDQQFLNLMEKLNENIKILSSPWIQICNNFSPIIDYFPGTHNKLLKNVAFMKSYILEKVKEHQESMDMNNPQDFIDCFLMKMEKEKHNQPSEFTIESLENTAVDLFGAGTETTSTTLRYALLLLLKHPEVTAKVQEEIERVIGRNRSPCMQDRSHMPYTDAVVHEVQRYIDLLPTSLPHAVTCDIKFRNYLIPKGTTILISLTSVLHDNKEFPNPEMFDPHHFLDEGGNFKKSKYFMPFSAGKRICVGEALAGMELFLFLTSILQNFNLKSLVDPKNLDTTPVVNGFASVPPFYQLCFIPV

In the case of `CCCCCn1nc(C(=O)NC23CC4CC(CC(C4)C2)C3)c2ccccc21` [APINACA, N-(1-adamantyl)-1-pentyl-1H-indazole-3-carboxamide], in data set [1], the Ki was 4.6 µM. For the same compound, the IC50 on CYP2C9 (IC50 (μM) No Preincubation, 10 μM diclofenac, no preincubation) was above 100 µM; against CYP2C9 (IC50 (μM) With Preincubation, 30-min preincubation with NADPH), 85 µM; against UGT1A4, above 100 µM; on UGT1A4 (read-out: IC50 UGT1A4 trifluoperazine N-glucuronidation, with 30-min preincubation, pooled human liver microsomes, 30-min preincubation with UDPGA (○)), above 100 µM. At CYP2C9 (human, microsomes, pH 7.4, IC50 (μM) With Preincubation, 30-min preincubation with NADPH), this compound came in with a half-maximal inhibitory concentration (IC50) at 15 min above 100 µM.
